From ChEMBL document CHEMBL1201862, “PubChem BioAssay data set” (2004)
Active and inactive are the calls of the source.

Columns and labels:
[1] = Luminescence Cell-Based Dose Response HTS to Identify Activators of Luciferase Translation or Activity in H4 […] Cells. [Related pubchem assays: 1829 (Project Summary), 1814 (Primary HTS)]; type: functional
H4 = assay: Luminescence Cell-Based Dose Response HTS to Identify Activators of 5'UTR Stem-Loop Driven Prion Protein mRNA Translation in H4 Neuroglioblastoma Cells. [Related pubchem assays: 1829 (Project Summary), 1814 (Primary HTS)]; type: functional; conditions: Homo sapiens
[2] = target: E3 ubiquitin-protein ligase Mdm2 (Homo sapiens, UniProt Q00987); assay: enhancers of MDM2-luciferase reporter signal, concentration-effect titration, project on inhibitors of MDM2 ubiquitin ligase, cellular assay, luminescent readout, 384-well plate format (AID 1394); type: functional;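 note: MDM2 E3 inhibitors raise luminescence so EC50 is for signal enhancement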
Protein RecA = target: T1, Protein RecA (Mycobacterium tuberculosis, UniProt P9WHJ3); assay: Fluorescence Cell-Free Homogeneous Dose Retest to Identify Inhibitors of RecA-Intein Splicing Activity. [Related pubchem assays (depositor defined):AID2097, AID2223, AID489010, AID492950]; type: functional
T1 sequence (P9WHJ3 whole entry): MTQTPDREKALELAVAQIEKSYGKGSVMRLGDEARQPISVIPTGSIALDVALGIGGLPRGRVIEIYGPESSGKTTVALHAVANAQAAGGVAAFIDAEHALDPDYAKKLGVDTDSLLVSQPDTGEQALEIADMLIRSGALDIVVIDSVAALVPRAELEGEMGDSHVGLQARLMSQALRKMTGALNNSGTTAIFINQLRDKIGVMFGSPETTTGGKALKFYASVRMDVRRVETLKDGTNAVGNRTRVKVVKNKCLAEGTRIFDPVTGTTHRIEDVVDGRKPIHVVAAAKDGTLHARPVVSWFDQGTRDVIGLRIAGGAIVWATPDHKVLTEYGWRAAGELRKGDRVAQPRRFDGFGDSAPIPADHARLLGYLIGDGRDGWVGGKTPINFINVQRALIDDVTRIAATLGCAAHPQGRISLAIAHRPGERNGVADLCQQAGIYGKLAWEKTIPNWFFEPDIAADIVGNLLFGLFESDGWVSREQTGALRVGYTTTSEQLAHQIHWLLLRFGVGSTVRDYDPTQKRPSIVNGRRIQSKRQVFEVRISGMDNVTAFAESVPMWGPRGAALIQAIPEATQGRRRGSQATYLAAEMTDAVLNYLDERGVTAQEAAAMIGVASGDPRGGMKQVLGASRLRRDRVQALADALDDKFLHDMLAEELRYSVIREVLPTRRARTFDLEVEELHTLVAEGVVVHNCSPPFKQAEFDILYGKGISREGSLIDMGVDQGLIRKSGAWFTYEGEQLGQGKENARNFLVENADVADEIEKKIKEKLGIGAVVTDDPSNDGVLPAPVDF

Paired box protein Pax-8 = Paired box protein Pax-8 (Homo sapiens, UniProt Q06710); assay: inhibitors of PAX8-driven TPO luciferase reporter, dose response, RMG-I cells, cherry-pick (AID 687027); type: functional, cell-based;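 note: luciferase reporter driven by Pax8 target thyroperoxidase promoter measured by SteadyGlo luminescence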
[3] = target: T2, Replicative DNA helicase DnaB (Mycobacterium tuberculosis, UniProt P9WMR3); assay: DnaB intein splicing inhibitors, dose response, biochemical, cell-free fluorescence (AID 449749); type: functional
T2 sequence (P9WMR3 whole entry): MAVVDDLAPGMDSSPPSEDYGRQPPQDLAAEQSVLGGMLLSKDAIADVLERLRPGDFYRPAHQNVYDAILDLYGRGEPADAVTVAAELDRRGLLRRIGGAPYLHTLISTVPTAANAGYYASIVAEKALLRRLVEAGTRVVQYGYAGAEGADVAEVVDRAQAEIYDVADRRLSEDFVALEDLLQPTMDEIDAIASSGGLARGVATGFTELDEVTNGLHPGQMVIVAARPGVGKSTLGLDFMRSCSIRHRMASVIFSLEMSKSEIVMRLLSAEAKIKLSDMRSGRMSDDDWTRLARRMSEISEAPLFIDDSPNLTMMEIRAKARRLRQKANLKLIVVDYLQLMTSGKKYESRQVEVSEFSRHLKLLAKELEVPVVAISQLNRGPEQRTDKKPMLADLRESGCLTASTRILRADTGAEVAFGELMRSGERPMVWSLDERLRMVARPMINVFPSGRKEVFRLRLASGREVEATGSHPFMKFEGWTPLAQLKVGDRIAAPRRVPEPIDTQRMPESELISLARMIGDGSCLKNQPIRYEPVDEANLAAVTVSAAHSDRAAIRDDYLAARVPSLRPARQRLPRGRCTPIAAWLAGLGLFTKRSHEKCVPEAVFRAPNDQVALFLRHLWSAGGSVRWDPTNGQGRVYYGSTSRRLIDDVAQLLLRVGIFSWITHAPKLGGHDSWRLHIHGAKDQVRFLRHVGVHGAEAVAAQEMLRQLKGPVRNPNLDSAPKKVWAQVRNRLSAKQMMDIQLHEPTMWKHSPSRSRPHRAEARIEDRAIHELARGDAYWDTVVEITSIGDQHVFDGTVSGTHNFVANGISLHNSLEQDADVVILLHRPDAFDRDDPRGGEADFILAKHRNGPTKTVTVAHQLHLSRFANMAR

[4] = non-specific cell cytotoxicity, dose response, cytotoxicity control for PAX8 inhibitor project, plate reader, dry powder samples (AID 743021); type: functional, cell-based
Streptokinase A = target: T3, Streptokinase A (Streptococcus pyogenes serotype M1, UniProt P10520); assay: S. pyogenes streptokinase expression inhibitors, potency, dose response, plasminogen activation absorbance, OD405 (AID 1914); type: functional, Streptococcus pyogenes M1 GAS;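 note: secreted streptokinase activity via plasminogen activation per viability signal from cell pellet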
T3 sequence (P10520 whole entry): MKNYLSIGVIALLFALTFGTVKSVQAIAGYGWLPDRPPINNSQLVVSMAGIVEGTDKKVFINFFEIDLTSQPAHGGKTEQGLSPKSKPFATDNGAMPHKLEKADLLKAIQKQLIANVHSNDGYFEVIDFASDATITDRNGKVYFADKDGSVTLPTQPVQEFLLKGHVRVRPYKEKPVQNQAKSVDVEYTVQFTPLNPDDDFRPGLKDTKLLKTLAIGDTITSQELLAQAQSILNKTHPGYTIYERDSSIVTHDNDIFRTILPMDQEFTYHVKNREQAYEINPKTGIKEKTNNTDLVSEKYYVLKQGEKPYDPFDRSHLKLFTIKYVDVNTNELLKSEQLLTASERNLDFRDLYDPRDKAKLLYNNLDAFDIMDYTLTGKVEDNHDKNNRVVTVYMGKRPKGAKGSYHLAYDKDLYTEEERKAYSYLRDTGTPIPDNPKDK

Streptococcus = assay: Group A Streptococcus viability loss, dose response, counter-screen for streptokinase expression inhibitor project, luminescence, BacTiterGlo (AID 1915); type: functional, organism-based;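 note: potency for reduction of bacterial viability or growth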
[5] = system: Streptococcus sp. 'group A'; assay: growth inhibition of control SK(-) GAS strain, dose response, counter-screen for streptokinase expression inhibitor project, luminescence, kanamycin, BacTiterGlo, confirmation (AID 1900); type: functional, organism-based
[6] = target: Disintegrin and metalloproteinase domain-containing protein 17 (Homo sapiens, UniProt P78536); assay: ADAM17 protease inhibitors, dose response, counter-screen for ADAM10 exosite inhibitor project, biochemical, quenched FRET substrate (AID 743253)
[7] = inhibitors of intracellular T. cruzi replication, confirmation, NIH3T3 host cells, beta-gal luminescence (AID 2044); type: functional, cell-based;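 note: intracellular parasites grown in NIH/3T3 mouse fibroblasts as host cells; luminescent beta-galactosidase reporter signal from transgenic T. cruzi replicating inside host cells; inhibitors lower the luminescence signal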
[8] = microbe, parasite or virus in culture; type: functional; conditions: Mycobacterium tuberculosis
[9] = cytotoxicity toward NIH3T3 fibroblasts, dose response, counter-screen, cell-based, ATP luminescence, mouse fibroblasts (AID 2010); type: functional;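 note: cells exposed to compound for about 90 hours before reading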
[10] = P. falciparum Dd2 growth inhibitors, dose response, SYBR Green, dry powder samples (AID 1159566); type: functional, cell-based;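 note: potency for growth inhibition with lower SYBR green DNA signal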
[11] = P. falciparum Dd2 growth inhibitors, dose response, SYBR Green, cherry-picked samples (AID 1159567); type: functional, cell-based
[12] = P. falciparum ATP4 D1247Y mutant growth inhibitors, dose response, NITD609-resistant line, SYBR Green, dry powder (AID 1159571); type: functional, cell-based;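 note: parasites synchronized at ring stage by sorbitol before testing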
[13] = HepG2 cell cytotoxicity, dose response, cytotoxicity control, plate reader, dry powder samples (AID 1159569); type: functional, cell-based;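 note: inhibitor potency with signal falling toward the positive control level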
[14] = P. falciparum 3D7-ScDHODH growth inhibitors, dose response, SYBR Green, dry powder samples (AID 1159570); type: functional, cell-based;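 note: parasite growth measured after 72 hours of compound exposure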
[15] = target: T4, Polyadenylate-binding protein 1 (Homo sapiens, UniProt P11940); assay: PABP1 MLLE–PAM2 interaction inhibitors, dose response, miRNA deadenylation inhibitor project, biochemical, fluorescence polarization, Cy5-PAM2 peptide, secondary (AID 602260); type: functional; conditions: read-out: IC50_Mean
[16] = target: T4, Polyadenylate-binding protein 1; assay: PABP1 MLLE–PAM2 binding inhibitor potency, dose response, biochemical, fluorescence polarization, FITC-PAM2 peptide (AID 602259); type: functional; conditions: read-out: IC50_Mean
[17] = target: T5, Mannose-6-phosphate isomerase (Homo sapiens, UniProt P34949); assay: human PMI inhibitors, high substrate, primary screen, biochemical, fluorescence intensity, high mannose 6-phosphate (AID 1220)
T5 sequence (P34949 whole entry): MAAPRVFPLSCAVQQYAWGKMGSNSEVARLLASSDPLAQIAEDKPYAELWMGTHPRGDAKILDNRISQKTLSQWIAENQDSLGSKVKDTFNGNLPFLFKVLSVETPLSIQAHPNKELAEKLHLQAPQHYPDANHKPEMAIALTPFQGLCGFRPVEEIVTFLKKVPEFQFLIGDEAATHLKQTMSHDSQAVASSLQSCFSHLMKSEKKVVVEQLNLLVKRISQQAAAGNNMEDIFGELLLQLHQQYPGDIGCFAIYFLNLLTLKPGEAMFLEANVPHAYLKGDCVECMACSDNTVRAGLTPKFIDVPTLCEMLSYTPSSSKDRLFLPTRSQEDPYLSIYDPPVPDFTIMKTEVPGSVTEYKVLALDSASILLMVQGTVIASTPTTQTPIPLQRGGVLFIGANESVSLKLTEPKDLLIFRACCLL

Prothrombin = Prothrombin (Homo sapiens, UniProt P00734); assay: Thrombin 1536 HTS Dose Response Confirmation. [Related pubchem assays: 1046 (Thrombin 1536 HTS; hits were confirmed in this assay)]; type: functional
[18] = HepG2 cell cytotoxicity, dose response, cytotoxicity control, cherry-picked samples (AID 1159577); type: functional, cell-based
[19] = target: Heat shock protein HSP 90-alpha (Homo sapiens, UniProt P07900); assay: Luminescence-based dose response biochemical high throughput screening assay for inhibitors of the Heat Shock Protein 90 (HSP90). [Related pubchem assays: 1831 (Summary AID.), 1846 (Confirmation screen.), 1789 (Primary screen.)]
[20] = HEK293 cell cytotoxicity, dose response, cytotoxicity control, plate reader, cherry-picked samples (AID 743446); type: functional, cell-based
[21] = LGR2 antagonists, dose response, cell-based, HEK293, CRE-luciferase reporter, cherry pick, set 2 (AID 743343); type: functional;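 note: transfected cells were stimulated with diluted bursicon conditioned medium after compound addition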
[22] = A549 cell cytotoxicity, dose response, cytotoxicity control, plate reader, cherry-pick, antagonist series (AID 743412); type: functional, cell-based
[23] = MC4R antagonists, dose response, counter-screen for LGR2 antagonist project, cell-based, plate reader, cherry pick (AID 743444); type: functional;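 note: transfected HEK 293 cells stimulated with alpha-MSH peptide; potency of inhibitors of the alpha-MSH evoked signal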
[24] = NIH-3T3 fibroblast cytotoxicity, dose response, cytotoxicity control, cell-based, fluorescence, Alamar Blue, secondary assay (AID 2327); type: functional;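 note: NIH-3T3 mouse fibroblasts cultured with fluconazole at 8 µg/mL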
[25] = C. albicans growth with fluconazole, confirmation, fluorescence, retest (AID 2467); type: functional, cell-based

Chain of E3 ubiquitin-protein ligase Mdm2 (Q00987 whole entry): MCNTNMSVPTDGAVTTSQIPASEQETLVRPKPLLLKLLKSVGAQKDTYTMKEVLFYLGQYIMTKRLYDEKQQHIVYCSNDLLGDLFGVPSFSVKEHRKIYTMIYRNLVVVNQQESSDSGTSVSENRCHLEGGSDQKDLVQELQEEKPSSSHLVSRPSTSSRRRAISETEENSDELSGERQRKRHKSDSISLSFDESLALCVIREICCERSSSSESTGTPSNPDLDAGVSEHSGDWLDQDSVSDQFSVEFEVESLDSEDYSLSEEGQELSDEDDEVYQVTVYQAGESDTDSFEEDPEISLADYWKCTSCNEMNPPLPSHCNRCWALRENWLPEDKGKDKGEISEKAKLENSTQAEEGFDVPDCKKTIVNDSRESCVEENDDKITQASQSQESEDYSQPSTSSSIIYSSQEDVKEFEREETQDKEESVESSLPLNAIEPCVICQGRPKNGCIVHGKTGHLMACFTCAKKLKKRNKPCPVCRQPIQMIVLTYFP
T4 sequence (P11940 whole entry): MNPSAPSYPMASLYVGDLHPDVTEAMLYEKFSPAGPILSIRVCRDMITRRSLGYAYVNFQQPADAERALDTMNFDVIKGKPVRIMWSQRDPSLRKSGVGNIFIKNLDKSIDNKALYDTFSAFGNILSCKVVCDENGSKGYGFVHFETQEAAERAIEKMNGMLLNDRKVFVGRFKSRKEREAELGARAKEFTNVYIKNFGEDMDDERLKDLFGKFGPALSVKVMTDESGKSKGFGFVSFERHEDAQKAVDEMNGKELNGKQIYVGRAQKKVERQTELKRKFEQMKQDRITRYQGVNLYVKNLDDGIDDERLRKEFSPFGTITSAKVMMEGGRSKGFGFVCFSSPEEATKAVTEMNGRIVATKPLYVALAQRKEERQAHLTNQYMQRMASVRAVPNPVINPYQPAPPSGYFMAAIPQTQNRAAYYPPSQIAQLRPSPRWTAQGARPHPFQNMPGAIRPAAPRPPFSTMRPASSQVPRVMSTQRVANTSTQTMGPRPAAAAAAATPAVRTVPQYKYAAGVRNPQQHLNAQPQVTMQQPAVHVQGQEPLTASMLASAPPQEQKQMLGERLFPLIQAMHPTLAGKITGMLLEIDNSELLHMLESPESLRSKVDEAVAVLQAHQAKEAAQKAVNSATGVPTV
Chain of Disintegrin and metalloproteinase domain-containing protein 17 (P78536 whole entry, the tested form may be a part): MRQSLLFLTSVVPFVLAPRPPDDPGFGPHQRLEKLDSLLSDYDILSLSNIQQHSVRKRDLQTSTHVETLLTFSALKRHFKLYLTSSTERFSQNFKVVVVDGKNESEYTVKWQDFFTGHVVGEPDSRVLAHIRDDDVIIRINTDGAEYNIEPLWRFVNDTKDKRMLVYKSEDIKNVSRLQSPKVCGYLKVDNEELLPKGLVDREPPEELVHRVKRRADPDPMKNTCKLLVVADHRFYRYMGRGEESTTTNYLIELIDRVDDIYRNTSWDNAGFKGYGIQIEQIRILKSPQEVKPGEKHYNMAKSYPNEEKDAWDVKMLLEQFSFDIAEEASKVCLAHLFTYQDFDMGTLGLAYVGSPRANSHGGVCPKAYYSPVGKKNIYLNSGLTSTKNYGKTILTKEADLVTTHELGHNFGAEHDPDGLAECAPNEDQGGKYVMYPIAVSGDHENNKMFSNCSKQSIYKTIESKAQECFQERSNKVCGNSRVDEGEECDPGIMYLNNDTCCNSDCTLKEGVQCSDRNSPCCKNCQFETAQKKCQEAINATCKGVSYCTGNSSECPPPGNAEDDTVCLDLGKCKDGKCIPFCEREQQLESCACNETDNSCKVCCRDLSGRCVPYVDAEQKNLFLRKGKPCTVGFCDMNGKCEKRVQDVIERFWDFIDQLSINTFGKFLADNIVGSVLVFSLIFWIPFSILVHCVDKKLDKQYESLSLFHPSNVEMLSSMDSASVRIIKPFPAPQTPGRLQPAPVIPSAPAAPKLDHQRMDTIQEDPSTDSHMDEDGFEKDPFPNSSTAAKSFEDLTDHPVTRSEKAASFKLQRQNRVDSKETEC
Chain of Paired box protein Pax-8 (Q06710 whole entry): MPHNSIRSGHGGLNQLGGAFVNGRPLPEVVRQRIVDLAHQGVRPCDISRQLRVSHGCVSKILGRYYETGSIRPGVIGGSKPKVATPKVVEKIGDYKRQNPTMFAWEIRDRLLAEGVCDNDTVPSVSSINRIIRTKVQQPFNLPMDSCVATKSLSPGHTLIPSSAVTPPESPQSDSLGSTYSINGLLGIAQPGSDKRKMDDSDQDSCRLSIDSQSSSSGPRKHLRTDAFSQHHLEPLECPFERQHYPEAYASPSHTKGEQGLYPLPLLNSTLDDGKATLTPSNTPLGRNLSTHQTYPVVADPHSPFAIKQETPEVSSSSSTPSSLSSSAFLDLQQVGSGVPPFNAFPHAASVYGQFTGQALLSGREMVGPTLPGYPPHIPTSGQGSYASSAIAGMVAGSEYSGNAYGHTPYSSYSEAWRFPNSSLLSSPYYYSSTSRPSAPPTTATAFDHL

SMILES: Cc1cccc(Nc2nnc(SCC3CCCCO3)s2)c1 (stereo not drawn)
- EC50 [1]: 27.2 µM (active)
- EC50 (H4): 21.8 µM (active)
- EC50 [2]: 11.2 µM (not active)

SMILES: O=C(CCl)N(Cc1ccccc1)c1ccccc1
- EC50 (Protein RecA): 0.813 µM (active)
- AC50 (Paired box protein Pax-8): 3.95 µM (active)
- AC50 [3]: 18.4 µM (active)
- AC50 [4]: 9.34 µM (active)

SMILES: Cc1cc(C)c(CSc2nc(-c3ccc([N+](=O)[O-])cc3)c[nH]2)c(C)c1
- EC50 (Streptokinase A): 10.3 µM (active)
- EC50 (Streptococcus): 39.4 µM (active)
- EC50 [5]: 3.92 µM (active)
- IC50 [6]: > 69.5 µM (inactive)
- EC50 [7]: 3.48 µM (active)
- CC50 [8]: 22.3 µM (active)
- EC50 [9]: > 60 µM (inconclusive)

SMILES: COc1ccccc1C#Cc1ccc2c(c1)[C@H]1NCC[C@H]1[C@@H](CO)N2
- AC50 [10]: 2.02 µM (active)
- AC50 [11]: 2.45 µM (active)
- AC50 [12]: 3.13 µM (active)
- AC50 [13]: 38.1 µM (active)
- AC50 [14]: 3.54 µM (active)

SMILES: Oc1nc2cc3c(cc2cc1CN(Cc1nnnn1CC1CCCO1)C1CCCC1)OCO3 (stereo not drawn)
- IC50 [15]: > 66 µM (inactive)
- IC50 [16]: > 66 µM (inactive)
- EC50 [2]: 47.2 µM (not active)

SMILES: Cc1cccc(N2C(=O)/C(=C/N3CCN(C(=O)c4ccco4)CC3)C(=O)NC2=S)c1
- IC50 [17]: > 50 µM (not active)

SMILES: Cc1nnc(SCc2nnc(-c3ccccc3Br)o2)n1-c1ccccc1
- IC50 (Prothrombin): > 50 µM (not active)

SMILES: O=C(C1CCCC1)N1CC[C@@H]2[C@H]1c1cc(-c3cccc(F)c3)ccc1N[C@@H]2CO
- AC50 [10]: 0.641 µM (active)
- AC50 [11]: 0.996 µM (active)
- AC50 [12]: 0.577 µM (active)
- AC50 [13]: 19.9 µM (active)
- AC50 [14]: 1.03 µM (active)

SMILES: CO[C@@H]1CN(C)C(=O)c2cc(NC(=O)c3nc4ccccc4s3)ccc2OC[C@H](C)N(Cc2cccnc2)C[C@@H]1C
- AC50 [11]: 5.35 µM (active)
- AC50 [18]: 33.4 µM (active)

SMILES: COc1ccc(N(/N=C2\Sc3ccccc3C2=O)C(C)=O)cc1
- IC50 [19]: 1.96 µM (active)

SMILES: CC(=O)c1c(OC(=O)c2ccco2)c2ccccc2n1C
- IC50 (Prothrombin): 3.99 µM (active)

SMILES: O=C(Nc1ccc(Cl)cc1Cl)c1ccc2c(c1)OCCO2
- AC50 [20]: > 52 µM (inactive)
- AC50 [21]: 6.49 µM (active)
- AC50 [22]: 42.4 µM (active)
- AC50 [23]: 12.9 µM (active)

SMILES: O=C(Cc1ccccc1)N1CCN(S(=O)(=O)c2ccc([N+](=O)[O-])cc2)CC1
- IC50 [19]: 29.1 µM (not active)

SMILES: CCOC(=O)N1CCN(Cc2ccc(O)c3ncccc23)CC1
- EC50 [24]: > 150 µM (inactive)
- EC50 [25]: > 38 µM (not active)
- IC50 [17]: 10.6 µM (active)

SMILES: COc1ccc(C#Cc2ccc([C@H]3[C@@H](CO)N4CCCCN(C(=O)Nc5ccccc5F)C[C@H]34)cc2)cc1
- AC50 [11]: 1.02 µM (active)
- AC50 [18]: 7 µM (active)
